Reference: patent US11833207B2, “Adipocyte-targeting DNA nanodrug and preparation and uses thereof” (HUNAN UNIVERSITY, priority 2020, dated 2023)

Experiments:
3T3-L1 preadipocytes = assay type: cell-based; details: mouse, 24 h
Protocol: 3T3-L1 preadipocytes were seeded in a 96-well plate at 10^4/well. After culturing for 24 h, the preadipocytes were added with TA, TDM or TADN for another 24 h culture. The culture medium was removed, and the cells were washed twice with PBS, followed by the addition of 100 μL of fresh culture medium and 10 μL of CCK-8 for the CCK-8 assay according to the manufacturer's protocol. The UV absorbance of each well at 450 nm was recorded using a Synergy 2 multifunctional microplate reader (Bio-Tek, Winooski, Vt.).

[1] = EPR measurement of O2·− scavenging (DEPMPO trapper)
Protocol: Electron paramagnetic resonance (EPR) measurements were performed to evaluate the O2·^−- and ·OH-scavenging abilities of DNA hybrid nanostructures TADN. DEPMPO was used as the trapper. O2·^− was generated by dissolving KO2 in DMSO/crown ether (0.2 M). ·OH was produced by the Fenton-type reaction using H2O2 and CuSO4.

BSA = BSA (Bos taurus, UniProt P02769); assay: Nonspecific protein (BSA) absorption by BSA fluorescence
Sequence of BSA (P02769 25-607): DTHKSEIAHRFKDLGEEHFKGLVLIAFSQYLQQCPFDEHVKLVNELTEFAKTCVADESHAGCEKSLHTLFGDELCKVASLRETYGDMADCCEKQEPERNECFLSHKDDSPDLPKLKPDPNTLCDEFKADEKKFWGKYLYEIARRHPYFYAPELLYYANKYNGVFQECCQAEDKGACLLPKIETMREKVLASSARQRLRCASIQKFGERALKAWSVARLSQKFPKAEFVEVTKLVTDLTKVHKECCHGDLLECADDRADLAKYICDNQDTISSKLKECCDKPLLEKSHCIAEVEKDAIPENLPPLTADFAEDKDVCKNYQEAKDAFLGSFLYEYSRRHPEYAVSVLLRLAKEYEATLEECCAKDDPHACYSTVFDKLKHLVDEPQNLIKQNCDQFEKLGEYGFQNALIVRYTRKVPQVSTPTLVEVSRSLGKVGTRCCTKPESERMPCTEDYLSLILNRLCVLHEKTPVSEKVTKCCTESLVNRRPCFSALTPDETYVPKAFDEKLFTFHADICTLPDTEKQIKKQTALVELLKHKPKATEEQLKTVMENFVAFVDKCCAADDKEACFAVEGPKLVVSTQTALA

- O2·−-scavenging stability ([1]; after 24 h): almost disappeared
- protein adsorption (BSA): tended to absorb proteins
SMILES: O=C(OC[C@H]1O[C@@H](OC(=O)c2cc(O)c(O)c(OC(=O)c3cc(O)c(O)c(O)c3)c2)[C@H](OC(=O)c2cc(O)c(O)c(OC(=O)c3cc(O)c(O)c(O)c3)c2)[C@@H](OC(=O)c2cc(O)c(O)c(OC(=O)c3cc(O)c(O)c(O)c3)c2)[C@@H]1OC(=O)c1cc(O)c(O)c(OC(=O)c2cc(O)c(O)c(O)c2)c1)c1cc(O)c(O)c(OC(=O)c2cc(O)c(O)c(O)c2)c1 [TA, tannic acid]
- concentration above which cytotoxicity increases (3T3-L1 preadipocytes): above 25 μM
- O2·−-scavenging activity ([1]; EPR): comparable scavenging activity to TADN
